Assay results reported in patent publication US11998516B2, “Methods and compositions for treating depression using cyclobenzaprine” (TONIX PHARMA HOLDINGS LIMITED, priority 2011, dated 2024).

Columns and labels:
[1] = tested on: fibromyalgia patients; settings: 10 to 40 mg over a 12-week period; cited from earlier work
[2] = tested on: patients with fibromyalgia
Experimental: Hospital Anxiety and Depression Scale (HAD). The Hospital Anxiety and Depression Scale (HAD) is a widely used patient self-rated scale with 14 questions (7 “anxiety” and 7 “depression” questions) that ranges from 0-42.
The HAD Depression Subscale score was also analyzed.

[3] = 1-4 mg at bedtime, week 8, p=0.012
[4] = 1-4 mg at bedtime, week 8, p=0.017

For `CN(C)CCC=C1c2ccccc2C=Cc2ccccc21` [cyclobenzaprine, 3-(5H-dibenzo[a,d]cyclohepten-5-ylidene)-N,N-dimethyl-1-propanamine], the muscle tightness [1] is listed as “reduction”, the pain score [1] is listed as “significantly improved” and the quality of sleep [1] is listed as “significantly improved”. The “total number of tender points” value [1] was “reduction”, the “HAD depression subscale at week 8” value ([2]; 1-4 mg at bedtime, week 8) was 4.9 and the “decrease (improvement) of HAD score, baseline to week 8” value [2, 3] was 3.3. For the same compound, the “percent decrease of HAD score, baseline to week 8” value [2, 3] was 24.1%, the “decrease (improvement) of HAD depression subscale, baseline to week 8” value [2, 4] was 1.4 and the “percent decrease of HAD depression subscale, baseline to week 8” value [2, 4] was 22.2%. For the same compound, the “HAD score at week 8” value ([2]; 1-4 mg at bedtime, week 8, scale range 0-42) was 10.4, the “HAD depression subscale at baseline” value ([2]; fibromyalgia patients, before treatment) was 6.3 and the “HAD score at baseline” value ([2]; fibromyalgia patients, before treatment, scale range 0-42) was 13.7. For the same compound, the “comparison of change from baseline in HAD scale versus placebo” value ([2]; week 8, VLD CBP vs placebo groups) was “did not reveal a significant effect” and the “comparison of change from baseline in HAD Depression subscore versus placebo” value ([2]; week 8, VLD CBP vs placebo groups, p=0.023) was “significant improvement”.
